Test results as given in patent publication US8889423B2, “Method for analysis of compound-binding ability of protein” (Eisai R & D Management Co., Ltd., priority 2005, dated 2014).

Experiments:
[1] = system: OS9 (amplified in osteosarcoma isoform 1-4 precursor); assay: Affinity chromatography on immobilized compound with urea step elution, LC/MS peak intensity ratio; type: binding, Human; conditions: for peak intensity ratio (peak area of the labeled protein/peak area of the non-labeled protein): HCT116 extract
Protocol: (§1) About 10 mg of the compound represented by formula (1):
(§2) [drawing 1] was dissolved in 4 mL of tetrahydrofuran (THF) and 4 mL of methanol (MeOH), and 4 mL of water was added thereto.
(§3) 6 mL of the resultant solution was diluted with 18 mL of THF/MeOH/Water=1/1/1 (v/v/v), and was added to 25 mL of Affi-gel 10 (produced by BioRad, Cat No. 153-6099), which had been washed with THF/MeOH/Water=1/1/1 (v/v/v) beforehand.
(§4) To the resultant substance, 100 μL of triethylamine (produced by Tokyo Chemical Industry Co., Ltd., Cat No. T0424) was added thereto and incubated at room temperature for 2 hours. Then, 500 μL of 2-aminoethanol (produced by Tokyo Chemical Industry Co., Ltd., Cat No. A0297) was added thereto and incubated at room temperature for 2 hours. The resultant gel was fully washed with THF/MeOH/Water=1/1/1 (v/v/v), and was stored at 4° C. after replacement with a methanol solution. The resultant gel was set to be used as an affinity gel. By this reaction, the compound represented by formula (1) was bound at a ratio of about 0.2 mg for 1 mL of gel. A column was filled with about 0.9 ml of the produced affinity gel. Thus, an affinity chromatography column was produced.
(§5) Human colon glandular cancer cell line HCT116 (ATCC) was cultured. Used as a medium was RPMI-1640 (Sigma, R-7130) containing 10% fetal calf serum (MOREGATE, BATCH 32300102), 100 U/ml of penicillin G; and 100 μg/ml of streptomycin (Invitrogen, 15140-122). As for the RPMI-1640 medium, a powder medium which contains none of L-glutamine, L-lysine, L-methionine, L-leucine, and sodium hydrogen carbonate was selected. Then, components absent in the medium were added. The absent components were added as follows. L-glutamine (produced by Sigma, G-8540), L-lysine (produced by Sigma, L-9037), L-methionine (produced by Sigma, M-5308), and sodium hydrogen carbonate (Wako Pure Chemical Industries, Ltd., 191-01305) were added in 0.3 g/L, 0.04 g/L, 0.015 g/L, and 2 g/L, respectively; and then naturally-occurring L-leucine and L-leucine labeled with a stable isotope ^13C (six) (Cambridge Isotope Laboratories, CLM-2262) were separately added in 0.05 g/L. Each medium thus prepared was used to culture cells in 5% CO2 at 37° C. The cells obtained by such culturing were used in the following tests as cells cultured in a naturally-occurring medium and cells cultured in a stable isotope medium, respectively.
(§6) Cells cultured in the naturally-occurring medium were provided in an amount corresponding to ten 15-cm diameter plates. Cells cultured in the stable isotope medium were provided in an amount corresponding to ten 15-cm diameter plates. The cells were collected. The cells were solubulized with about 2 ml of M-PER (PIERCE, 78501) per 15-cm diameter plate. Insoluble fractions were removed by centrifugation to prepare soluble fractions. The soluble fractions thus obtained were set to be used as a protein extract liquid metabolically labeled with a stable isotope and a protein extract liquid not metabolically labeled with a stable isotope, respectively. To these protein extract liquids (about 20 ml each), a quadruple amount of PBS was added (final amount: about 100 ml each).
Next, about 0.9 ml of affinity gel was put into an open column, and a diluted protein extract liquid metabolically labeled with a stable isotope was added to the open column from above and was naturally dropped. Then, 10 ml of PBS containing 1 M NaCl was flown to this column. […]

[2] = system: proteins of HCT116 cell extract (AHCY, PCMT1, OS9, SPRY4); assay: Ranking of binding ability of proteins to the immobilized compound; design: species or system Human; conditions: from highest-peak fraction and from ratios in the 8 M urea fraction
Protocol: (§7) Next, about 0.9 ml of affinity gel was put into an open column, and a diluted protein extract liquid metabolically labeled with a stable isotope was added to the open column from above and was naturally dropped. Then, 10 ml of PBS containing 1 M NaCl was flown to this column. Next, 7 ml of PBS containing 1 M urea and 0.01% CHAPS, 7 ml of PBS containing 2 M urea and 0.01% CHAPS, 7 ml of PBS containing 4 M urea and 0.01% CHAPS, and 7 ml of PBS containing 8 M urea and 0.01% CHAPS were sequentially flown, and the eluted fractions were collected (4 fractions in total).
In parallel with the above operation, a diluted protein extract liquid not metabolically labeled with a stable isotope was added to 0.9 ml of affinity gel from above and was naturally dropped. Then, 10 ml of PBS containing 1 M NaCl was flown to this column. Next, 12 ml of PBS containing 8 M urea and 0.01% CHAPS was flown, and the eluted fractions were collected to be used as an internal standard fraction.
3 ml of the internal standard fraction was added to each of the four fractionated samples and mixed together. […]
Quantitation was to be performed at the peak of the peptides containing leucine. […] Peaks forming a pair were found, and the peak intensity ratio thereof was automatically calculated. In this manner, proteins were identified and the peak intensity ratio was calculated using the constructed software. […]

[3] = target: T1, MTAP (5′-methylthioadenosine phosphorylase) (Homo sapiens, UniProt Q13126); assay: Affinity chromatography on immobilized compound with urea step elution, LC/MS peak intensity ratio; type: binding; conditions: for peak intensity ratio (peak area of the labeled protein/peak area of the non-labeled protein): HCT116 extract
T1 construct: Insoluble fractions were removed by centrifugation to prepare soluble fractions; endogenous in cells; host or cells: HCT116
T1 sequence (Q13126 1-283): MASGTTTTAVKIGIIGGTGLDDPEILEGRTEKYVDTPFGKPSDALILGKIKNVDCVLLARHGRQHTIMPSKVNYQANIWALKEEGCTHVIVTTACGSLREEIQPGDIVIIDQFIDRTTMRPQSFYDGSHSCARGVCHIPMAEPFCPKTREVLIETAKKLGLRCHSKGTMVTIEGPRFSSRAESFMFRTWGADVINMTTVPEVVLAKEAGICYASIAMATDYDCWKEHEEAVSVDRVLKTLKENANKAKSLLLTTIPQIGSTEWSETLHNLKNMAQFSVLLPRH
Protocol: as §1, §2, §3, §4, §5, §6, §7
(§8) In parallel with the above operation, a diluted protein extract liquid not metabolically labeled with a stable isotope was added to 0.9 ml of affinity gel from above and was naturally dropped. Then, 10 ml of PBS containing 1 M NaCl was flown to this column. […]

[4] = target: T2, AHCY (S-adenosylhomocysteine hydrolase) (Homo sapiens, UniProt P23526); assay: as above; type: binding; conditions: for peak intensity ratio (peak area of the labeled protein/peak area of the non-labeled protein): HCT116 extract
T2 construct: Insoluble fractions were removed by centrifugation to prepare soluble fractions; endogenous in cells; host or cells: HCT116
T2 sequence (P23526 2-432 limits assumed): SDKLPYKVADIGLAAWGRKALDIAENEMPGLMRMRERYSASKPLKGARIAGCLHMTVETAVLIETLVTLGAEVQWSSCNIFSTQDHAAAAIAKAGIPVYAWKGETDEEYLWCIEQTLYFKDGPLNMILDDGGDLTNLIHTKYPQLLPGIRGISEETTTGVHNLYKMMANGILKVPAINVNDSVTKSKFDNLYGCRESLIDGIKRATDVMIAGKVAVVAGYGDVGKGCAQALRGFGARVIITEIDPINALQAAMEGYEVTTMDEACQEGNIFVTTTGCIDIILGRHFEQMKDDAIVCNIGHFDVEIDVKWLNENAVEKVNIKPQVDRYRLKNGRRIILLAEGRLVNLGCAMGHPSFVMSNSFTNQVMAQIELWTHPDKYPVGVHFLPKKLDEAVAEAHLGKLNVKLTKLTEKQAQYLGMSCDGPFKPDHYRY
Protocol: as §1, §2, §3, §4, §5, §6, §7, §8

[5] = target: T3, SPRY4 (sprouty homolog 4) (Homo sapiens, UniProt Q9C004); assay: as above; type: binding; conditions: for peak intensity ratio (peak area of the labeled protein/peak area of the non-labeled protein): HCT116 extract
T3 construct: Insoluble fractions were removed by centrifugation to prepare soluble fractions; endogenous in cells; host or cells: HCT116
T3 sequence (Q9C004 1-299): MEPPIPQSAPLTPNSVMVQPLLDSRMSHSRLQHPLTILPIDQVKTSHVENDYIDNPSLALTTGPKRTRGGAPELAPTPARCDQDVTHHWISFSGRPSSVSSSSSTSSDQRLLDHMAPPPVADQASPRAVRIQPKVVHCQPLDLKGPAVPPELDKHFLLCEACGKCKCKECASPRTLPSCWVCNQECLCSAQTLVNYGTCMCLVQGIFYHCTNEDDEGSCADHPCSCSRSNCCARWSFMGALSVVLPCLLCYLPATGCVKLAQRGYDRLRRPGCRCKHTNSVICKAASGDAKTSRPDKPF
Protocol: as §1, §2, §3, §4, §5, §6, §7, §8

[6] = target: T4, PCMT1 (protein-L-isoaspartate (D-aspartate) O-methyltransferase) (Homo sapiens, UniProt P22061); assay: as above; type: binding; conditions: for peak intensity ratio (peak area of the labeled protein/peak area of the non-labeled protein): HCT116 extract
T4 construct: Insoluble fractions were removed by centrifugation to prepare soluble fractions; endogenous in cells; host or cells: HCT116
Protocol: as §1, §2, §3, §4, §5, §6, §7, §8

T4 sequence (P22061 whole entry): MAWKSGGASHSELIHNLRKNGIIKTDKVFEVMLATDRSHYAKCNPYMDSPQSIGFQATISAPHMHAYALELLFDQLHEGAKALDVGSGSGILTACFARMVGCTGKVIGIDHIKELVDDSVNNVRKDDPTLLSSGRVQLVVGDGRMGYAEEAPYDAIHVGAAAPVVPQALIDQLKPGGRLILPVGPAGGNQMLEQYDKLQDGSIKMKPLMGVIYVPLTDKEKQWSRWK

## NCc1ccc(S(=O)(=O)Nc2cccc3c(Cl)c[nH]c23)cc1 [formula (1)]
[1]; 1M Urea fraction
  peak intensity ratio (peak area of the labeled protein/peak area of the non-labeled protein): 1.24
[1]; 2M Urea fraction
  peak intensity ratio (peak area of the labeled protein/peak area of the non-labeled protein): 3.57
[1]; 4M Urea fraction
  peak intensity ratio (peak area of the labeled protein/peak area of the non-labeled protein): 1.62
[1]; 8M Urea fraction
  peak intensity ratio (peak area of the labeled protein/peak area of the non-labeled protein): 0.73
[1]; elution with 1, 2, 4, 8 M urea
  fraction with the highest peak: 2 M urea fraction
[2]
  binding ability of the proteins to the compound, ordered from highest to lowest: AHCY, PCMT1, OS9 and SPRY4
[3]; 1M Urea fraction
  peak intensity ratio (peak area of the labeled protein/peak area of the non-labeled protein): 0.77
[3]; 2M Urea fraction
  peak intensity ratio (peak area of the labeled protein/peak area of the non-labeled protein): 0.78
[3]; 4M Urea fraction
  peak intensity ratio (peak area of the labeled protein/peak area of the non-labeled protein): 0.71
[3]; 8M Urea fraction
  peak intensity ratio (peak area of the labeled protein/peak area of the non-labeled protein): 0.88
[3]; all the four urea fractions
  peak intensity ratio: about 0.8
[4]; 1M Urea fraction
  peak intensity ratio (peak area of the labeled protein/peak area of the non-labeled protein): 0.63
[4]; 2M Urea fraction
  peak intensity ratio (peak area of the labeled protein/peak area of the non-labeled protein): 0.99
[4]; 4M Urea fraction
  peak intensity ratio (peak area of the labeled protein/peak area of the non-labeled protein): 1.88
[4]; 8M Urea fraction
  peak intensity ratio (peak area of the labeled protein/peak area of the non-labeled protein): 3.27
[4]; elution with 1, 2, 4, 8 M urea
  fraction with the highest peak: 8 M urea fraction
[5]; 1M Urea fraction
  peak intensity ratio (peak area of the labeled protein/peak area of the non-labeled protein): 3.70
[5]; 2M Urea fraction
  peak intensity ratio (peak area of the labeled protein/peak area of the non-labeled protein): 1.17
[5]; 4M Urea fraction
  peak intensity ratio (peak area of the labeled protein/peak area of the non-labeled protein): 0.83
[5]; 8M Urea fraction
  peak intensity ratio (peak area of the labeled protein/peak area of the non-labeled protein): 0.67
[5]; elution with 1, 2, 4, 8 M urea
  fraction with the highest peak: 1 M urea fraction
[6]; 1M Urea fraction
  peak intensity ratio (peak area of the labeled protein/peak area of the non-labeled protein): 1.14
[6]; 2M Urea fraction
  peak intensity ratio (peak area of the labeled protein/peak area of the non-labeled protein): 1.57
[6]; 4M Urea fraction
  peak intensity ratio (peak area of the labeled protein/peak area of the non-labeled protein): 2.52
[6]; 8M Urea fraction
  peak intensity ratio (peak area of the labeled protein/peak area of the non-labeled protein): 1.02
[6]; elution with 1, 2, 4, 8 M urea
  fraction with the highest peak: 4 M urea fraction
